We go through one molecule from ChEMBL document CHEMBL4420076, “Amylin and calcitonin receptor agonist” (2017).

Data set [1] has as its system Rattus norvegicus. The data set is described as follows: Reduction in food intake in Sprague-Dawley rat at 3 nmol/kg measured 0 to 24 hrs post dose relative to control. Format: functional. Also on record: scale not given: the % may be the effect or the level left.
In data set [2] the test system is Rattus norvegicus. The data set is described as follows: Reduction in food intake in Sprague-Dawley rat at 3 nmol/kg measured 24 to 48 hrs post dose relative to control. Format: functional. Also on record: scale not given: the % may be the effect or the level left.
Data set [3] addresses T1, Amylin receptor AMY3; CALCR/RAMP3 (Homo sapiens, UniProt O60896+P30988).
T1 sequence (P30988 whole entry): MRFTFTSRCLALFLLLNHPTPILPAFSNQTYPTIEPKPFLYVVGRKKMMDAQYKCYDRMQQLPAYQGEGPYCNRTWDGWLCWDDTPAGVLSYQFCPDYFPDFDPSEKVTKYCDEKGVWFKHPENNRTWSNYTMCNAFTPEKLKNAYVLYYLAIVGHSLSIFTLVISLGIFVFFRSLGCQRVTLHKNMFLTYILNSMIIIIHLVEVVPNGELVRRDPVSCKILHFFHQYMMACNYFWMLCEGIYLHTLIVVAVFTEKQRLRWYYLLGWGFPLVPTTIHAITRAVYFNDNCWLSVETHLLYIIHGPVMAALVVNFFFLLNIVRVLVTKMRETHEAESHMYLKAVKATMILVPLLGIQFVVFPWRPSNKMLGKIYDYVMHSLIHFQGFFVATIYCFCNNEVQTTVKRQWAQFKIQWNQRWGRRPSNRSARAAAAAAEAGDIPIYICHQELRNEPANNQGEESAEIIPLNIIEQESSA
T1 sequence (O60896 whole entry): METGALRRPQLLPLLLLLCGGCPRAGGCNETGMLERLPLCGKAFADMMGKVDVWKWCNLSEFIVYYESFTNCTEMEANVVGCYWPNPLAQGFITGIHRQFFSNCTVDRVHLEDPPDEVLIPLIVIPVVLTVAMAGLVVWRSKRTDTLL
Nature of the data set: Agonist activity at human amylin receptor expressed in BHK570 cells co-expressing RAMP3 assessed as increase in intracellular cAMP concentration incubated for 3 hrs in absence of albumin by CRE luciferase reporter gene assay. Format: functional, cell-based. Background: In a reporter assay the amount or activity of a reporter protein is the signal.

The target of data set [4] is T2, Calcitonin receptor (Homo sapiens, UniProt P30988).
T2 sequence (P30988 whole entry): T1 sequence (P30988 whole entry)
The data set is described as follows: Agonist activity at human calcitonin receptor expressed in BHK570 cells assessed as increase in intracellular cAMP concentration incubated for 3 hrs in absence of albumin by CRE luciferase reporter gene assay. The data set is classed as functional, cell-based.

A short description of data set [5]: Solubility in 100 mM glycylglycine buffer at pH 3.0 incubated for 18 hrs by UPLC analysis. Format: physicochemical.
Data set [6] can be described thus: Solubility in 100 mM glycylglycine buffer at pH 4.0 incubated for 18 hrs by UPLC analysis. The data set is classed as physicochemical.
Data set [7] in a line: Solubility in 100 mM bistrispropane buffer at pH 6.0 incubated for 18 hrs by UPLC analysis. The data set is classed as physicochemical.
A short description of data set [8]: Solubility in 100 mM glycylglycine buffer at pH 5.0 incubated for 18 hrs by UPLC analysis. Format: physicochemical.
Data set [9] can be described thus: Solubility in 100 mM bistrispropane buffer at pH 6.5 incubated for 18 hrs by UPLC analysis. The data set is classed as physicochemical.
Data set [10] in a line: Solubility in 100 mM bistrispropane buffer at pH 7.0 incubated for 18 hrs by UPLC analysis. The data set is classed as physicochemical.
A short description of data set [11]: Solubility in 100 mM bistrispropane buffer at pH 7.5 incubated for 18 hrs by UPLC analysis. The data set is classed as physicochemical.
Data set [12] can be described thus: Solubility in 100 mM bistrispropane buffer at pH 8.0 incubated for 18 hrs by UPLC analysis. Format: physicochemical.
A short description of data set [13]: Half life in LYD pig at 1.6 mM, sc co-formulated with 1.6 mM liraglutide by LC-MS analysis. The data set is classed as ADME, organism-based, Sus scrofa. Particulars: in vivo.
Data set [14] can be described thus: Dose normalized AUC in LYD pig at 1.6 mM, sc co-formulated with 1.6 mM liraglutide by LC-MS analysis. Particulars: in vivo, 1600 µM. The data set is classed as ADME, organism-based, Sus scrofa.
Data set [15] is described as follows: Half life in LYD pig at 1.6 mM, sc co-dosed with 1.6 mM liraglutide by LC-MS analysis. To be noted: in vivo. Format: ADME, organism-based, Sus scrofa.
The nature of data set [16]: Dose normalized AUC in LYD pig at 1.6 mM, sc co-dosed with 1.6 mM liraglutide by LC-MS analysis. Format: ADME, organism-based, Sus scrofa. Particulars: in vivo, 1600 µM.
Data set [17] concerns Rattus norvegicus. The data set is described as follows: Reduction in body weight in Sprague-Dawley rat model of diet-induced obesity assessed as relative body weight at 3.7 ug/kg, sc dosed dosed once daily during 0 to 15 days and measured on day 15 relative to initial body weight (reference value: 98.8 +/- 0.8%). The data set is classed as functional. Also on record: scale not given: the % may be the effect or the level left.

Data set [18] relates to Rattus norvegicus. The data set is described as follows: Reduction in body weight in Sprague-Dawley rat model of diet-induced obesity assessed as relative body weight at 3.7 ug/kg, sc dosed dosed once daily during 0 to 28 days and measured on day 28 relative to initial body weight (reference value: 99.8 +.- 1.1%). Format: functional. On the set-up: scale not given: the % may be the effect or the level left.

Data set [19] deals with Rattus norvegicus. Nature of the data set: Reduction in body weight in Sprague-Dawley rat model of diet-induced obesity assessed as relative body weight at 3.7 ug/kg, sc dosed dosed once daily and co-treated with 0.1 mg/kg, sc liraglutide during 0 to 15 days and measured on day 15 relative to initial body weight (reference value: 98.8 +/- 0.8%). Also on record: scale not given: the % may be the effect or the level left. The data set is classed as functional.

In data set [20] the test system is Rattus norvegicus. Nature of the data set: Reduction in body weight in Sprague-Dawley rat model of diet-induced obesity assessed as relative body weight at 3.7 ug/kg, sc dosed dosed once daily and co-treated with 0.1 mg/kg, sc liraglutide during 0 to 28 days and measured on day 28 relative to initial body weight (reference value: 98.8 +/- 0.8%). The data set is classed as functional. Also on record: scale not given: the % may be the effect or the level left.

The target of data set [21] is T1, Amylin receptor AMY3; CALCR/RAMP3. The data set is described as follows: Displacement of [125I]-labeled rat amylin from human amylin receptor expressed in BHK tkts13 whole cells co-expressing RAMP3 incubated for 60 mins by scintillation proximity assay. The data set is classed as cell-based. For orientation: In a radioligand displacement assay an active substance lowers the binding of a labelled ligand.

pEC50, pIC50: −log10 of the molar value. Peptide text beside a SMILES is read from it. * marks the point of attachment. C18 diacid = O=C(O)CCCCCCCCCCCCCCCCC(=O)* A value given as a limit tells only on which side of the number the result lay.

As usually defined, the pEC50 is the EC50 on a negative log10 scale, so that one unit is a factor of ten. Broadly, the solubility is how much of the substance goes into solution per volume. In general, half-life refers to the time in which the quantity being followed falls by half. What is called pIC50 is the negative decadic logarithm of the IC50, by convention in mol/L.

As to `CC(C)C[C@H](NC(=O)[C@H](C)NC(=O)[C@H](C)NC(=O)[C@@H](NC(=O)[C@H](CO)NC(=O)[C@H](CC(C)C)NC(=O)[C@H](CCC(=O)O)NC(=O)[C@H](CO)NC(=O)[C@H](C)NC(=O)[C@H](CCC(=O)O)NC(=O)CCCCCCCCCCCCCCCCC(=O)O)[C@@H](C)O)C(=O)NCC(=O)N[C@@H](CCCNC(=N)N)C(=O)N[C@@H](CC(C)C)C(=O)N[C@@H](CO)C(=O)N[C@@H](C)C(=O)N[C@@H](CCC(=O)O)C(=O)N[C@@H](CC(C)C)C(=O)N[C@@H](Cc1cnc[nH]1)C(=O)N[C@@H](CCC(=O)O)C(=O)N[C@@H](CC(C)C)C(=O)N[C@@H](C)C(=O)N[C@H](C(=O)N[C@@H](CC(C)C)C(=O)N1CCC[C@H]1C(=O)N[C@@H](CCCNC(=N)N)C(=O)N[C@H](C(=O)N[C@@H](CCC(=O)O)C(=O)N[C@H](C(=O)NCC(=O)N1CCC[C@H]1C(=O)N[C@@H](CCC(=O)O)C(=O)N[C@@H](CO)C(=O)N1CCC[C@H]1C(N)=O)[C@@H](C)O)[C@@H](C)O)[C@@H](C)O` ({C18 diacid}-EASELSTAALGRLSAELHELATLPRTETGPESP-NH2), the Activity in [1] is listed as 79%; in [2], 60.67%; in data set [17], 90.6%; in data set [18] it was 88.9%; in [19] it was 93.4%; in data set [20], 83.2%. Besides, the pEC50 in data set [3] is 11.10; in data set [4], 11.30. The solubility at 18 h in data set [5], in data set [6], in data set [7], in data set [8], in [9] and in data set [10] was at least 200 µM each time. For the same molecule, the solubility at 18 h in data set [11] and in [12] was at least 200 µM throughout. Besides, the half-life at 1600 µM in [13] and in data set [15] was 67 h throughout. Moreover, the AUC/dose in [14] came out at 732 kg·h/L; in data set [16] it was 712 kg·h/L. In addition, the pIC50 in [21] was 9.04.
